From patent US20110171274A1, “Fesoterodine Substantially Free of Dehydroxy Impurity” (ACTAVIS GROUP PTC EHF, priority 2008, published 2011)
Counter-ions that a name gives are not always drawn.

Key:
Assay type in all cases: physicochemical
[1] = Particle size distribution by laser diffraction (Malvern Master Sizer 2000); details: for Particle Size (D10) / Particle Size (D50) / Particle Size (D90): as crystallised from isopropyl alcohol / isopropyl ether
Text: As used herein, “Particle Size Distribution (PSD)” means the cumulative volume size distribution of equivalent spherical diameters as determined by laser diffraction in Malvern Master Sizer 2000 equipment or its equivalent. “Mean particle size distribution, i.e., (D50)” correspondingly, means the median of said particle size distribution.
The important characteristics of the PSD were the (D90), which is the size, in microns, below which 90% of the particles by volume are found, and the (D50), which is the size, in microns, below which 50% of the particles by volume are found.

[2] = Solubility of fesoterodine fumarate in solvents
[3] = Storage stability (crystalline form, lack of formation of impurities); details: about 25±2° C., relative humidity about 60±5%
Text: The term “remains stable”, as defined herein, refers to lack of formation of impurities, while being stored as described hereinbefore.

| Particle Size (D10) [1] [μm] | Particle Size (D50) [1] [μm] | Particle Size (D90) [1] [μm] | SMILES | further results |
| --- | --- | --- | --- | --- |
| 4.243 | 14.875 | 90.272 | CC(C)C(=O)Oc1ccc(CO)cc1[C@H](CCN(C(C)C)C(C)C)c1ccccc1 [Example 7, Fesoterodine Fumarate] | – |
| 4.518 | 22.291 | 85.415 | CC(C)C(=O)Oc1ccc(CO)cc1[C@H](CCN(C(C)C)C(C)C)c1ccccc1 [Example 8, Fesoterodine Fumarate] | – |
| 4.485 | 31.876 | 110.282 | CC(C)C(=O)Oc1ccc(CO)cc1[C@H](CCN(C(C)C)C(C)C)c1ccccc1 [Example 9, Fesoterodine Fumarate] | – |
| – | – | – | CC(C)C(=O)Oc1ccc(CO)cc1[C@H](CCN(C(C)C)C(C)C)c1ccccc1 [Example 10, Fesoterodine fumarate] | diameter of 90 volume-% of the particles (D90) ([1]; after fine-milling in a grinder for 3-4 minutes): less than 50 microns |
| – | – | – | CC(C)C(=O)Oc1ccc(CO)cc1[C@H](CCN(C(C)C)C(C)C)c1ccccc1 [Fesoterodine fumarate, 2-[(1R)-3-[bis(1-methylethyl)amino]-1-phenylpropyl]-4-hydroxymethylphenyl isobutyrate] | solubility in aqueous solvents ([2]; aqueous solvents): freely soluble; solubility in heptane ([2]; heptane): practically insoluble; solubility in polar non protic solvents ([2]; polar non protic solvents (acetone, DMF, DMSO, acetonitrile)): soluble; solubility in polar protic organic solvents ([2]; some polar protic organic solvents (ethanol, methanol, glacial acetic acid, 2-propanol, propylene glycol)): soluble; solubility in toluene ([2]; toluene): slightly soluble; storage stability ([3]; 3 months): remains in the same crystalline form and stable; storage stability ([3]; at least one month): remains in the same crystalline form and stable |
